What was measured:
[1] = Oral bioavailability in C57 mouse; format: ADME, organism-based; settings: in vivo
[2] = Plasma clearance in C57 mouse; format: ADME, organism-based
[3] = Volume of distribution at steady state in C57 mouse; format: ADME, organism-based; settings: in vivo, read-out: Vdss
[4] = Half life in C57 mouse; format: ADME, organism-based; settings: in vivo
[5] = Apparent permeability from apical to basolateral side of human Caco2 cells; format: ADME, cell-based; settings: Caco-2, read-out: permeability
[6] = Apparent permeability from basolateral to apical side of human Caco2 cells; format: ADME, cell-based; settings: Caco-2, read-out: permeability
Liver microsomes [7] = test: Intrinsic clearance in human liver microsomes assessed per mg of protein; format: ADME, Microsome
Liver microsomes [8] = test: Intrinsic clearance in rat liver microsomes assessed per mg of protein; format: ADME, Microsome
[9] = Intrinsic clearance in mouse liver microsomes assessed per mg of protein; format: ADME, Microsome
Hepatocyte [10] = test: Intrinsic clearance in rat hepatocytes assessed per 1 x 10^6 cells; format: ADME, cell-based, Liver
Hepatocyte [11] = test: Intrinsic clearance in human hepatocytes assessed per 1 x 10^6 cells; format: ADME, cell-based, Liver

bioavailability [1]	Papp A→B [5]	Papp B→A [6]	clearance (Hepatocyte [10])	Compound	further results
57%				Nc1nccc2c(S(=O)(=O)N3CCCNCC3)cccc12	clearance [2]: 34 mL/min/kg; Vd [3]: 2.4 L/kg; half-life [4]: 45 min
	14.3 ×10⁻⁶ cm/s	11.2 ×10⁻⁶ cm/s	< 6 µL/min/1e6 cells	O=c1[nH]ccc2cc(O[C@H]3CCCNC3)ccc12	clearance (Liver microsomes [7]): < 12 µL/min/mg; clearance (Liver microsomes [8]): 24 µL/min/mg; clearance [9]: 17 µL/min/mg; clearance (Hepatocyte [11]): 2 µL/min/1e6 cells
> 75%				Nc1nccc2cc(O[C@H]3CCCNC3)ccc12	
	11.6 ×10⁻⁶ cm/s	17.6 ×10⁻⁶ cm/s	21 µL/min/1e6 cells	c1ccc(CN2CCC[C@H](Oc3ccc4cnccc4c3)C2)cc1	
